Data: patent US7727955B2, “Pharmaceutical compositions based on NK2 antagonists for pediatric use” (Laboratori Guidotti S.p.A., priority 2004, dated 2010)
Positions of bridges follow the written chain, without caps; N, C: chain ends. Non-standard residues stand in square brackets, D forms with d. Residues, ends and D or L forms follow the SMILES beside them. *: point of attachment. NH(β-GlcNAc) = CC(=O)N[C@@H]1[C@@H](O)[C@H](O)[C@@H](CO)O[C@H]1N*; Dap = NC[C@H](N)C(=O)O

How the values were obtained:
[1] = biological target: T1, NK2 receptors (Rattus norvegicus, UniProt P16610); assay: Intestinal transit of a carbon suspension in infant rats, increase induced by NK2 selective agonist β-Ala^8-NKA(4-10); format: in vivo; conditions: infant rats aged 7-10 days
T1 construct: prevent the increase in intestinal transit induced by the stimulation of NK2 receptors by the β-Ala^8-NKA(4-10) agonist; from tissue; host or cells: whole animal: infant rats aged 7-10 days (intestine, in vivo)
T1 sequence (P16610 1-390): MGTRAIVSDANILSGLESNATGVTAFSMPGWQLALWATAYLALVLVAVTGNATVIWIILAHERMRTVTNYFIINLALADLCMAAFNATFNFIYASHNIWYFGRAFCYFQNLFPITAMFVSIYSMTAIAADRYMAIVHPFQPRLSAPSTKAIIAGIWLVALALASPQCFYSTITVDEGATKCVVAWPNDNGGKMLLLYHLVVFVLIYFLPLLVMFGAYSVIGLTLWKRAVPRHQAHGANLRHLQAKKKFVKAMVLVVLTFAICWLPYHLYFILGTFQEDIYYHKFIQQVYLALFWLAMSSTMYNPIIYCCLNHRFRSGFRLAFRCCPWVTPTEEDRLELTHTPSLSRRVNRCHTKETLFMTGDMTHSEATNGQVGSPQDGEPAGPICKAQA
Experimental: (§1) The formulations of the present invention were tested for their biological activity in vivo on newborn rats in accordance with the following method:
(§2) a) The NK2 selective agonist β-Ala^8-NKA(4-10) was administered intraperitoneally to infant rats aged between 7 and 10 days, both males and females, at a dose of 15 μg/kg. A 10% suspension of carbon in 1% methylcellulose was then administered orally to the animals at a volume of 15 ml/kg. The same carbon-based suspension was administered to a control group which had not received the NK2 agonist.

[2] = tested on: infant rats; assay: Basal intestinal transit in infant rats without agonist administration; format: in vivo; conditions: oral, nepadutant 2.5 mg/kg, measured at 6 hours after administration, no agonist
Experimental: as §1, §2

[3] = set-up: species or system rats; conditions: rat, in vivo, po
[4] = tested on: animal models of IBS; conditions: cited from earlier work
[5] = clinical; conditions: human, in vivo, po
[6] = tested on: infantile colics; conditions: clinical evidence from literature; cited from earlier work

In the case of CC(=O)N[C@@H]1[C@@H](O)[C@H](O)[C@@H](CO)O[C@H]1NC(=O)C[C@@H]1NC(=O)[C@H](CC(C)C)NC(=O)[C@@H]2CNC(=O)C[C@H](NC1=O)C(=O)N[C@@H](Cc1c[nH]c3ccccc13)C(=O)N[C@@H](Cc1ccccc1)C(=O)N2 [Nepadutant, cyclo((Asn(β-D-2-deoxy-2-acetamido-Glc)-Asp-Trp-Phe-Dap-Leu)cyclo(2β-5β))] (cyclo(D(NH(β-GlcNAc))DWF[Dap]L); lactam 2-5), the “prevention of the increase in intestinal transit induced by β-Ala^8-NKA(4-10)” value ([1]; oral, nepadutant 0.5 and 2.5 mg/kg at 2, 4 and 6 hours before agonist 15 μg/kg i.p.) is reported as “able to prevent the increase in intestinal transit”, the “effect on basal intestinal transit” value [2] is reported as “no effect on basal intestinal transit” and the “bioavailability in infant rats” value [3] is reported as “substantially enhanced”. The correction of hyperalgesia [4] was “corrects hyperalgesia” and the bioavailability [5] was 1%.

In the case of simethicone, the effect versus placebo [6] is given as “no better than placebo”.

In the case of β-Ala^8-NKA(4-10) [reference compound], the “increase in intestinal transit after agonist administration” value ([1]; 15 μg/kg i.p., versus control group without agonist) is reported as “significant increase in intestinal transit”.
